Data: patent US11591313B2, “Inhibitors of ectonucleotide pyrophosphatase/phosphodiesterase 1 (ENPP1) and methods of use thereof” (Stingray Therapeutics, Inc., priority 2020, dated 2023)
Where a name gives a salt, the structure may show the parent alone. Read-outs that look alike come from different tables or passages of the source.

Columns and labels:
[1] = molecular target: T1, Recombinant Human ENPP-1 Protein (Homo sapiens (Human), UniProt P22413); assay: ENPP1 Assay (TMP); assay type: biochemical
T1 sequence (P22413 whole entry, looked up): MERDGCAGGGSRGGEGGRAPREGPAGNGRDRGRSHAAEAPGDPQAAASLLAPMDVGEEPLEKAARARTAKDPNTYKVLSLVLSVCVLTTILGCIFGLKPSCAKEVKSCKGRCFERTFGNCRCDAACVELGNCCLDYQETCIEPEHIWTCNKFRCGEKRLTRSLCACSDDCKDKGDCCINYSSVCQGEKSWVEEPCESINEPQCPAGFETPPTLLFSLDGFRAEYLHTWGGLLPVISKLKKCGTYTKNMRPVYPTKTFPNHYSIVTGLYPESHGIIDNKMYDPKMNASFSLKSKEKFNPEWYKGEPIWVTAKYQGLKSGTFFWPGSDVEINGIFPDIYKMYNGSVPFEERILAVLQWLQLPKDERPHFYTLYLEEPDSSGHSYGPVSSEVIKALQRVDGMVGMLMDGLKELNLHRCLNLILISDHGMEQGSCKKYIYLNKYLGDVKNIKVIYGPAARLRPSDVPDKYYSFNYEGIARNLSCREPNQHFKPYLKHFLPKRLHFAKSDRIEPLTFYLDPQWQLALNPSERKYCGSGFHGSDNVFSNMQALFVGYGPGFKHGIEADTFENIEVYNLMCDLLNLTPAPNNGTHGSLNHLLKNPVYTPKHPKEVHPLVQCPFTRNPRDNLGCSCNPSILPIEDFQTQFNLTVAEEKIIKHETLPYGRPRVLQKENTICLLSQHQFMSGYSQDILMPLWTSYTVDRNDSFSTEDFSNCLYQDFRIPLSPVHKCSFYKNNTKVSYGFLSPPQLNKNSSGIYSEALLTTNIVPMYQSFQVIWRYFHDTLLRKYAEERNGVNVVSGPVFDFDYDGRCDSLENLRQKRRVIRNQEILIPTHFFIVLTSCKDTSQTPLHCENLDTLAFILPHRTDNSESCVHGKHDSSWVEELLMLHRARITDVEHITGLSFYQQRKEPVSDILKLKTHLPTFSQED
Description: Assay Buffer: 1 mM CaCl2, 0.2 mM ZnCl2, 50 mM Tris, pH 9.0
Enzyme: 1 ng/μL Recombinant Human ENPP-1 Protein (purified in-house)—Assay Cone.: 5 ng/well
A ten point serial dilution of drugs was prepared in 10× in assay buffer with the final assay concentrations starting at 10 μM, 3 μM, 1 μM, 0.3 μM . . . 0 μM. A dilution of DMSO was included as a control. The assay plate was set up as follows with each well in duplicate: 75 μL assay buffer+10 μL ENPP1 inhibitor or DMSO Dilutions+10 μL Substrate+5 μL Enzyme (5 ng). Both the enzyme and substrate were added to opposite sides of the well to ensure that there was no interaction until all wells had both components. The plate was then centrifuged gently for 10 seconds, followed by an incubation at 37° C. for 45 minutes. […] Data was analyzed using GraphPad Prism 8.0.

[2] = molecular target: T1, Recombinant Human ENPP-1 Protein; assay type: binding; conditions: SYPRO Orange protein melt
Description: Recombinant Human ENPP-1 Protein (Purified In-House)
Assay Buffer (1 mM CaCl2, 0.2 mM ZnCl2, 50 mM Tris, pH 9.0)
5000×SYPRO Orange (ThermoFisher cat #S6651)
Each drug was prepared as a 1 Ox solution in the assay buffer and SYPRO Orange was diluted to 10× concentration in water. Wells were set up in duplicate in a 384-well PCR plate as follows: 14 μL assay buffer, 2 μL ENPP1 Inhibitor or DMSO, 2 μL (0.5 μg) ENPP1 protein. Each well was mixed and incubated on ice for 5 minutes. Post incubation, 2 μL of SYPRO Orange was mixed into each well and followed by a gentle centrifugation. The protein melt reaction was run using ViiA7 software with temperatures beginning at 25° C. and increasing by 0.05° C./s to the maximum temperature of 99° C.

[3] = molecular target: Recombinant Human ENPP-2/Autotaxin (rhENPP-2) (Homo sapiens (Human), UniProt Q13822); assay: ENPP2 Assay; assay type: biochemical; conditions: substrate BPNPP, pH 8.5, 37° C. 10 minutes, absorbance at 400 nm
Description: Assay Buffer: 50 mM Tris, 10 mM CaCl2, 5 mM MgCl2, 0.02% Brij-35 (v/v), pH 8.5
Substrate: 20 mM Bis(p-Nitrophenyl) Phosphate Sodium Salt (BPNPP) (Sigma, Catalog #N3002)
Enzyme: 0.01 ng/μL Recombinant Human ENPP-2/Autotaxin (rhENPP-2) (R&D Catalog #5255-EN)
96-well clear assay plates
0 μM. […] PF8380 was used as a positive control for the assay. Data was analyzed using GraphPad Prism 8.0.

COc1cc2ncc(C#N)c(N3CCCC(CCNS(N)(=O)=O)CC3)c2cc1OC (racemic) [Compound 038]
IC50 [1]: 0.94 nM

COc1cc2ncnc(N3CCCN(S(N)(=O)=O)CC3)c2cc1OC [Compound 015, 4-(6,7-dimethoxyquinazolin-4-yl)-1,4-diazepane-1-sulfonamide]
IC50 ([1]; read-out: IC50): 32.4 nM

COc1cc2ncnc(N3CCCN(S(N)(=O)=O)CC3)c2cc1OC.Cl [Compound 015-HCl, 4-(6,7-dimethoxyquinazolin-4-yl)-1,4-diazepane-1-sulfonamide hydrochloride salt]
Thermal Shift @10 uM (dTm (o C.)) [2]: $$$ ($$$ >3o C.) | IC50 ([1]; hydrochloride salt, read-out: IC50): 5.97 nM | IC50 [3]: > 1000 nM

COc1cc2ncnc(N3CCCN(S(N)(=O)=O)CC3)c2cc1OC [Compound 015-MES, 4-(6,7-dimethoxyquinazolin-4-yl)-1,4-diazepane-1-sulfonamide methanesulfonate]
IC50 ([1]; methanesulfonate, read-out: IC50): 6.38 nM

COc1cc2c(N3CCCN(S(N)(=O)=O)CC3)ncnc2cc1-c1cn[nH]c1 [Compound 020, 4-(6-methoxy-7-(1H-pyrazol-4-yl)quinazolin-4-yl)-1,4-diazepane-1-sulfonamide]
IC50 ([1]; read-out: IC50): 99.7 nM

COc1ccc2ncnc(N3CCCN(S(N)(=O)=O)CC3)c2c1 [Compound 022, 4-(6-methoxyquinazolin-4-yl)-1,4-diazepane-1-sulfonamide]
IC50 ([1]; read-out: IC50): 116 nM

COc1cc2ncnc(N3CC4CC(C3)N(S(N)(=O)=O)C4)c2cc1OC (stereo not shown) [Compound 026, 3-(6,7-dimethoxyquinazolin-4-yl)-3,6-diazabicyclo[3.2.1]octane-6-sulfonamide hydrochloride]
IC50 ([1]; read-out: IC50): 118 nM

COc1cc2ncnc(N3CCN(S(N)(=O)=O)CC(F)(F)C3)c2cc1OC [Compound 029, 4-(6,7-dimethoxyquinazolin-4-yl)-6,6-difluoro-1,4-diazepane-1-sulfonamide hydrochloride]
IC50 ([1]; read-out: IC50): 1.21 nM

COc1cc2ncc(C#N)c(N3CCCC(NS(N)(=O)=O)CC3)c2cc1OC (stereo not shown) [Compound 042, N-(1-(3-cyano-6,7-dimethoxyquinolin-4-yl)azepan-4-yl)sulfamoylamine]
IC50 ([1]; read-out: IC50): 40.5 nM

COc1cc2ncnc(-c3ccc(CNS(N)(=O)=O)nc3)c2cc1OC [Compound 047, N-((5-(6,7-dimethoxyquinazolin-4-yl)pyridin-2-yl)methyl) sulfamide]
Thermal Shift @10 uM (dTm (o C.)) [2]: $$ ($$ <3o C.) | IC50 [3]: > 1000 nM

COc1cc2ncnc(-c3ccc(NCCNS(N)(=O)=O)nc3)c2cc1OC.Cl [Compound 048]
Thermal Shift @10 uM (dTm (o C.)) [2]: $$ ($$ <3o C.) | IC50 [3]: > 1000 nM

COc1cc2ncnc(N3CCCC(CCNS(N)(=O)=O)CC3)c2cc1OC (stereo not shown) [Compound 049]
Thermal Shift @10 uM (dTm (o C.)) [2]: $$$ ($$$ >3o C.) | IC50 [3]: > 1000 nM

COc1cc2ncnc(CCCCCNS(N)(=O)=O)c2cc1OC [Compound 050]
Thermal Shift @10 uM (dTm (o C.)) [2]: $$ ($$ <3o C.) | IC50 [3]: > 1000 nM

COc1cc2ncnc(OCCCCNS(N)(=O)=O)c2cc1OC [Compound 053]
Thermal Shift @10 uM (dTm (o C.)) [2]: $$$ ($$$ >3o C.)

COc1cc2ncnc(OCCCCCNS(N)(=O)=O)c2cc1OC [Compound 054]
Thermal Shift @10 uM (dTm (o C.)) [2]: $$ ($$ <3o C.)

COc1cc2ncnc(NCCCNS(N)(=O)=O)c2cc1OC [Compound 055, N-(3-((6,7-dimethoxyquinazolin-4-yl)amino)propyl) sulfamide hydrochloride]
Thermal Shift @10 uM (dTm (o C.)) [2]: $$ ($$ <3o C.)

COc1cc2ncnc(NCCCCNS(N)(=O)=O)c2cc1OC [Compound 056]
Thermal Shift @10 uM (dTm (o C.)) [2]: $$ ($$ <3o C.) | IC50 [3]: > 1000 nM

COc1cc2ncnc(NCCCCCNS(N)(=O)=O)c2cc1OC [Compound 057]
Thermal Shift @10 uM (dTm (o C.)) [2]: $$ ($$ <3o C.)

COc1cc2ncnc(SCCCCNS(N)(=O)=O)c2cc1OC [Compound 058, N-(4-((6,7-dimethoxyquinazolin-4-yl)thio)butyl) sulfamide hydrochloride]
Thermal Shift @10 uM (dTm (o C.)) [2]: $$$ ($$$ >3o C.)

COc1cc2ncnc(N3CCCC(CCNS(N)(=O)=O)CC3)c2cc1OC (stereo not shown) [Compound 060, N-(2-(1-(6,7-dimethoxyquinazolin-4-yl)azepan-4-yl)ethyl)sulfamide]
Thermal Shift @10 uM (dTm (o C.)) [2]: $$$ ($$$ >3o C.)

COc1cc2ncnc(N(C)CCCCCNS(N)(=O)=O)c2cc1OC [Compound 061, N-(5-((6,7-dimethoxyquinazolin-4-yl) (methyl)amino)pentyl) sulfamide]
Thermal Shift @10 uM (dTm (o C.)) [2]: $$ ($$ <3o C.)

COc1cc2ncnc(N3CCCN(CCNS(N)(=O)=O)CC3)c2cc1OC [Compound 062]
Thermal Shift @10 uM (dTm (o C.)) [2]: $$ ($$ <3o C.) | IC50 [3]: > 1000 nM

COc1cc2ncnc(N3CCCN(CCNS(N)(=O)=O)CC3)c2cc1OC.Cl [Compound 063, (N-(2-(4-(6,7-dimethoxyquinazolin-4-yl)-1,4-diazepan-1-yl)ethyl)sulfamide hydrochloride]
IC50 ([1]; read-out: IC50): 68.1 nM

COc1cc2ncnc(N3CCCN(CCNS(N)(=O)=O)CC3)c2cc1OC.Cl [Compound 063]
Thermal Shift @10 uM (dTm (o C.)) [2]: $$ ($$ <3o C.)

COc1cc2ncnc(N3CCCN(C(=O)CNS(N)(=O)=O)CC3)c2cc1OC.Cl [Compound 064, (N-(2-(4-(6,7-dimethoxyquinazolin-4-yl)-1,4-diazepan-1-yl)-2-oxoethyl)sulfamide hydrochloride]
IC50 [1]: 72 nM

COc1cc2ncnc(N3CCCN(C(=O)CNS(N)(=O)=O)CC3)c2cc1OC.Cl [Compound 064]
Thermal Shift @10 uM (dTm (o C.)) [2]: $$ ($$ <3o C.)

COc1cc2ncnc(N3CCCN(C(=O)CNS(N)(=O)=O)CC3)c2cc1OC [Compound 065]
Thermal Shift @10 uM (dTm (o C.)) [2]: $$$ ($$$ >3o C.) | IC50 ([1]; read-out: IC50): 7.74 nM | IC50 [3]: > 1000 nM
